Experimental data reported in US20210205264A1, “USE OF DELTA-TOCOTRIENOL FOR TREATING CANCER” (H. LEE MOFFITT CANCER CENTER & RESEARCH INSTITUTE INC., priority 2018, published 2021).
Peptide text beside a SMILES is read from it. * marks the point of attachment. Cbz = O=C(OCc1ccccc1)*

Assays:
CCSCs [1] = assay: miRNA profiles in CCSCs; format: cell-based, human; conditions: 24-hour treatment; aspirin 5 mM, d-T3 10 μM
Excerpt: Given the results, and without intending to be bound by any theory, it appears that the induction of apoptosis can be one mechanism by which d-T3 prevents CRC and augments CRC prevention activity. BID knockout can diminish this effect. The biorepository as well as materials generated from studies can be used to explore other mechanisms of d-T3 action such as anti-inflammatory, mediation of the immune system, anti-angiogenesis, and alterations in metabolism. To this end, miRNA profiles were conducted that are altered with d-T3, aspirin, and d-T3 with aspirin treatment in CCSCs. To discover early miRNAs that are likely to influence activity, these cells were deliberately treated with doses of these agents at a duration when there were no phenotypic changes of apoptosis.

BID = assay: Activation of BID (tBID) by Western blotting in CCSCs; format: cell-based, human; conditions: 24-hour treatment; aspirin 5 mM, d-T3 50 μM
Experimental: (§1) FIGS. 10A, 10B, 10C, and 10D show induction of apoptosis measured by flow cytometry (FIG. 10A) and confocal microscopy (FIG. 10B) in CCSCs after treatment with vehicle, aspirin, d-T3, and aspirin+d-T3. Effect of BID inhibitor on apoptosis in CCSCs after treatment with aspirin or d-T3 (FIG. 10C). Induction oft-BID in CCSCs after treatment with vehicle, aspirin, d-T3, and aspirin+d-T3 (FIG. 10D).
d-T3 can induce selective killing of CCSCs through the BH3 interacting-domain death agonist (BID). […] It should be noted that these in vitro results are consistent with the in vivo observation of the selective induction of apoptosis in APC mutant colon crypt cells in the ApcMin/+ mice but not in the normal intestinal cells of the AOM rat CRC model or NOD/SCID mice. […] Although the proapoptotic activity of d-T3 is a consistent observation of d-T3 anticancer activity in all of the published reports, the mechanism by which d-T3 induces apoptosis is poorly understood. Apoptotic death is regulated by the death receptor (extrinsic) and mitochondrial (intrinsic) pathways. […] To obtain preliminary information regarding the mechanisms by which d-T3 induces apoptosis in CCSCs, the activation of BID was measured after 24-hour treatment with vehicle, aspirin (5 mM), d-T3 (50 μM), and aspirin combined with d-T3 in CCSCs by Western blotting.

human CCSCs = assay: Orthotopic (cecum) model of luciferase expressing human CCSCs in NOD-SCID mice; format: in vivo
Experimental: FIGS. 8A, 8B, 8C, and 8D show growth of cecal tumor volume (FIGS. 8A & 8B) and liver metastasis score (FIGS. 8C & 8D) in orthotopic model of CCSCs after treatment with vehicle, aspirin, d-T3, and aspirin+d-T3.
In vivo model of human CCSC were developed by implanting the stably transfected luciferase expressing CCSCs in the cecum of NOD-SCID mice. In this model, tumor growth, metastasis, and survival are monitored twice weekly by IP injection of luciferin (150 mg/kg body weight) and imaged using the IVIS 200 Bioluminescence imaging system. […] These findings strongly indicate that d-T3 targets CCSCs and enhances the ability of aspirin to target these cells.

ApcMin/+ mice = assay: Adenoma (intestinal polyp) formation in ApcMin/+ mice; format: in vivo
Excerpt: FIGS. 1A and 1B show the number of intestinal polyps (FIG. 1A) and H&E staining of polyps (FIG. 1B) in ApcMin/+ mice treated with vehicle (V), aspirin (Asp), d-T3, and combination of aspirin+d-T3. Black dots in FIG. 1B point out polyps in the intestine. Although substantial preclinical evidence exists regarding the preventive activity of d-T3 and g-T3 in various types of cancers, there is no report of d-T3 prevention of colon cancer despite evidence of activity in colon cell lines and xenograft models. […] Treatment with aspirin alone reduced adenoma formation by 38%, and treatment with d-T3 alone reduced adenoma formation by 44%, while treatment with the combination of aspirin and d-T3 reduced adenoma formation by 58%.

colon polyps = conditions: patients with stage I-III colon cancer following treatment; 27% without aspirin; cited from earlier work
[2] = tested on: intestinal stem cells of ApcMin/+ mice; assay: Caspase 3 staining of intestinal crypts in ApcMin/+ mice; format: in vivo; conditions: small intestinal crypts of ApcMin/+ mice
Excerpt: Although substantial preclinical evidence exists regarding the preventive activity of d-T3 and g-T3 in various types of cancers, there is no report of d-T3 prevention of colon cancer despite evidence of activity in colon cell lines and xenograft models. […] Treatment with aspirin alone reduced adenoma formation by 38%, and treatment with d-T3 alone reduced adenoma formation by 44%, while treatment with the combination of aspirin and d-T3 reduced adenoma formation by 58%.

β-catenin = β-catenin immunofluorescence and Western blot in CCSCs; format: cell-based, human; conditions: MG132 25 μM, 3-methyladenine 10 mM, caspase 3 inhibitor 20 μM, calpain II inhibitor 25 μM
Excerpt: FIGS. 9A, 9B, 9C, and 9D show quantification of β-catenin in the nucleus and cytoplasm of CCSCs with confocal microscopy (FIGS. 9A & 9B) after treatment with vehicle, aspirin, d-T3, and aspirin+d-T3.
As noted above, stability of the β-catenin complex by inactivation of APC leads to stabilization and nuclear translocation of β-catenin and to transcriptional activation of β-catenin target genes such as c-Myc and cyclin D1. […] Furthermore, d-T3 inhibition of CCSCs is associated with the downregulation of β-catenin, c-Myc, cyclin D1, and survivin as measured by Western blot in CCSCs (FIG. 9D).

CCSCs [3] = assay: Annexin V FITC/PI flow cytometry apoptosis assay in CCSCs; format: cell-based, human; conditions: CCSCs
Experimental: as §1
d-T3 can induce selective killing of CCSCs through the BH3 interacting-domain death agonist (BID). […] It should be noted that these in vitro results are consistent with the in vivo observation of the selective induction of apoptosis in APC mutant colon crypt cells in the ApcMin/+ mice but not in the normal intestinal cells of the AOM rat CRC model or NOD/SCID mice. […] Although the proapoptotic activity of d-T3 is a consistent observation of d-T3 anticancer activity in all of the published reports, the mechanism by which d-T3 induces apoptosis is poorly understood. Apoptotic death is regulated by the death receptor (extrinsic) and mitochondrial (intrinsic) pathways. These 2 pathways crosstalk under certain conditions through caspase-8-mediated cleavage of BID, a BH3-only Bcl-2 family member. The activated and truncated BID (tBID) then engages the intrinsic pathway for efficient apoptosis induction. To obtain preliminary information regarding the mechanisms by which d-T3 induces apoptosis in CCSCs, the activation of BID was measured after 24-hour treatment with vehicle, aspirin (5 mM), d-T3 (50 μM), and aspirin combined with d-T3 in CCSCs by Western blotting.

hCAS [4] = biological target: T1, hCAS (Homo sapiens, UniProt P55060); assay: Streptavidin bead capture of hCAS from treated MiaPaCa-2 cells; format: binding; conditions: MiaPaCa-2 cells treated 24 hours
T1 construct: endogenous in cells; host or cells: MiaPaCa-2 human pancreatic cancer cells
T1 sequence (P55060 1-971): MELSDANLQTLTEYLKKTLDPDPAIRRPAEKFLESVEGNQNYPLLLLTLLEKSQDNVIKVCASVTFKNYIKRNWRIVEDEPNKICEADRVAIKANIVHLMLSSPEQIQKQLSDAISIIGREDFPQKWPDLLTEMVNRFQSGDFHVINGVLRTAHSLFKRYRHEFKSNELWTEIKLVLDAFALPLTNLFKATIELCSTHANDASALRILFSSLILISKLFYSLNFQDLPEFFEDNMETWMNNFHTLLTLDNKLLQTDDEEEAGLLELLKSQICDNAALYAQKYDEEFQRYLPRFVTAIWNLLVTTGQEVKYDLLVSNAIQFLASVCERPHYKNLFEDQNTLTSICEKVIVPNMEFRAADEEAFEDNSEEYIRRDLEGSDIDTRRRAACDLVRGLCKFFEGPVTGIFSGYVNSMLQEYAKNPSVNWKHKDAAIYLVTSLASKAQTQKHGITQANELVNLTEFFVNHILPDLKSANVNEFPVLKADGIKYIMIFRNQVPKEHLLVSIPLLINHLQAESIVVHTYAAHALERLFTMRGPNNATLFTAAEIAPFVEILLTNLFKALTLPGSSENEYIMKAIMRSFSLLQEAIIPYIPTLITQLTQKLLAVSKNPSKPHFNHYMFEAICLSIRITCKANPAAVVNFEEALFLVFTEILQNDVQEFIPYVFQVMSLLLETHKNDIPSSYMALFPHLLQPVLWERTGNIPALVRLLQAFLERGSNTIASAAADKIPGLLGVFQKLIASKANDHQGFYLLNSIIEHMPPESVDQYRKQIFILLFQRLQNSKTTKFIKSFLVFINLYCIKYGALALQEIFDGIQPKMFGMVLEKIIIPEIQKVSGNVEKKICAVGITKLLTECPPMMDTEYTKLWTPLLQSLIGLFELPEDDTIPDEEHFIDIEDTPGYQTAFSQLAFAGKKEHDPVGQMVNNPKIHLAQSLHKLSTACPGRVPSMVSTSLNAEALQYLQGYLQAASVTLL
Experimental: To confirm that δ-T3 binds to hCAS in intact cells, biotinylated δ-T3 (B-δ-T3) was prepared by chemically coupling the —OH group of δ-T3 to the —COOH of biotin using a PEG-iodoactamide linker (FIG. 18).
MiaPaCa-2 human pancreatic cancer cells were treated for 24 hours with biotin alone (B), B-δ-T3 or B-TOCOPH. The cells were then lysed, and the lysates incubated with streptavidin beads, and the captured proteins processed for Western blotting.

MiaPaCa-2 cell = MiaPaCa-2 cell viability at increasing concentrations; format: cell-based, human; conditions: increasing concentrations
hCAS [5] = biological target: T1, hCAS; assay: Competitive affinity-isolation of hCAS in MiaPaCa-2 cell lysate; format: binding; conditions: excess free compound
Experimental: This experiment used a synthetic biotin-δ-tocotrienol conjugate (shown below to inhibit growth activity of cultured MiaPaca-2 human pancreatic cancer cells) to confirm affinity-isolation of hCAS. To confirm that δ-T3 binds to hCAS in intact cells, biotinylated δ-T3 (B-δ-T3) was prepared by chemically coupling the —OH group of δ-T3 to the —COOH of biotin using a PEG-iodoactamide linker (FIG. 18). […] Affinity-isolation of hCAS was inhibited in the presence of free δ-tocotrienol but not with free δ-tocopherol.

SMILES: CC(=O)Oc1ccccc1C(=O)O [aspirin, reference compound]
- down-regulation of miRNAs compared with vehicle (number) (CCSCs [1]): 4 miRNAs
- up-regulation of miRNAs compared with vehicle (number) (CCSCs [1]): 2 miRNAs
- activation of tBID (BID): did not
- growth of human CRC stem cells (cecal tumor) (human CCSCs): inhibited
- metastases of human CRC stem cells (human CCSCs; liver metastasis): inhibited
- reduced adenoma formation (ApcMin/+ mice): 38%
- rate of polyp formation at 1-year colonoscopy (colon polyps): 17%
- apoptosis detected by caspase 3 staining [2]: minimal to no staining

SMILES: Cn1cnc(N)c2ncnc1-2 [3-methyladenine, reference compound]
- effect on d-T3 induced degradation of β-catenin (β-catenin): inhibited

SMILES: CC(C)C[C@@H](C=O)NC(=O)[C@H](CC(C)C)NC(=O)[C@H](CC(C)C)NC(=O)OCc1ccccc1 [MG132, reference compound] (Cbz-Leu-Leu-Leu-aldehyde)
- effect on d-T3 induced degradation of β-catenin (β-catenin): inhibited

SMILES: COc1ccc(S(=O)(=O)NCCCC(=O)Nc2ccc(Sc3ccc(N)cc3)cc2)cc1 [BI-6C9]
- effect of BID inhibitor on induction of apoptosis by aspirin (CCSCs [3]): not
- effect of BID inhibitor on induction of apoptosis by d-T3 (CCSCs [3]): negates the induction of apoptosis

SMILES: O=C(O)CCCC[C@@H]1SC[C@@H]2NC(=O)N[C@@H]21 [biotin]
- hCAS bound by streptavidin beads from lysates of treated cells (hCAS [4]): not

SMILES: Cc1cc(O)cc2c1O[C@](C)(CCC[C@H](C)CCC[C@H](C)CCCC(C)C)CC2 [TOCOPH, δ-Tocopherol, reference compound]
- effect on cell viability (MiaPaCa-2 cell): least effect
- affinity-isolation of hCAS / hCAS binding to biotin-T3 in presence of free competitor (hCAS [5]): does not
- affinity-isolation of hCAS / hCAS binding to biotin-T3 in presence of free competitor (hCAS [5]; listed as δ-tocopherol): not
